Laboratory results published in ChEMBL document CHEMBL1933003, “Cytotoxic esterified diterpenoid alkaloid derivatives with increased selectivity against a drug-resistant cancer cell line” (Bioorg Med Chem Lett, 2012).

Columns and labels:
A549 = test: Cytotoxicity against human A549 cells by sulforhodamine B assay; format: functional, cell-based
DU-145 = test: Cytotoxicity against human DU145 cells by sulforhodamine B assay; format: functional, cell-based
KB [1] = test: Cytotoxicity against human KB cells by sulforhodamine B assay; format: functional, cell-based
KB [2] = test: Cytotoxicity against multi-drug resistant variant vincristine resistant human KB cells expressing P-glycoprotein by sulforhodamine B assay; format: functional, cell-based
KB [3] = test: Selectivity ratio of EC50 for human KB cells to EC50 for multi-drug resistant variant vincristine resistant human KB cells expressing P-glycoprotein by sulforhodamine B assay; format: functional

Row | Structure (SMILES) | EC50 (A549) [µM] | EC50 (DU-145) [µM] | EC50 (KB [1]) [µM] | EC50 (KB [2]) [µM] | Ratio EC50 (KB [3])
1 | CCN1C[C@]2(C)CC[C@H](OC)[C@@]34C1[C@@]1(OCO[C@@]15C[C@H](OC)[C@H]1C[C@@H]3[C@@H]5[C@H]1OC)[C@@H](OC(=O)c1ccc(OC(F)(F)F)cc1)[C@H]24 (single isomer, unassigned) | 18.7 | 20.3 | 20.1 | 18.9 | 
2 | CCN1C[C@]2(C)CC[C@H](OC)[C@@]34C1[C@@]1(OCO[C@@]15C[C@H](OC)[C@H]1C[C@@H]3[C@@H]5[C@H]1OC)[C@@H](OC(=O)c1cc(OC)c(OC)c(OC)c1)[C@H]24 (single isomer, unassigned) | > 20 | > 20 | > 20 | > 20 | 
3 | CCN1C[C@]2(C)CC[C@H](OC)[C@@]34[C@@H]5C[C@H]6[C@H](OC)[C@@H]5[C@@]5(C[C@@H]6OC)OCO[C@@]5([C@@H](OC(=O)c5cccc(C(F)(F)F)c5)[C@H]23)[C@@H]14 | > 20 | 12.6 | 14.9 | 11.9 | 1.25
4 | CCN1C[C@]2(C)CC[C@H](OC)[C@@]34C1[C@@]1(OCO[C@@]15C[C@H](OC)[C@H]1C[C@@H]3[C@@H]5[C@H]1OC)[C@@H](OC(=O)c1ccc([N+](=O)[O-])cc1)[C@H]24 (single isomer, unassigned) | > 20 | 17.2 | > 20 | 17.7 | 
5 | CCN1C[C@]2(C)CC[C@H](OC)[C@@]34C1[C@@]1(OCO[C@@]15C[C@H](OC)[C@H]1C[C@@H]3[C@@H]5[C@H]1OC)[C@@H](OC(=O)c1ccc(SC(F)(F)F)cc1)[C@H]24 (single isomer, unassigned) | > 20 | 16.6 | > 20 | 17.9 | 
6 | CCOc1ccc(C(=O)O[C@H]2[C@@H]3[C@@]4(C)CC[C@H](OC)[C@]35C(N(CC)C4)[C@@]23OCO[C@@]32C[C@H](OC)[C@H]3C[C@@H]5[C@@H]2[C@H]3OC)cc1 (single isomer, unassigned) | 20 | 15.6 | 14.8 | 6.5 | 2.28
7 | CCN1C[C@]2(C)CC[C@H](OC)[C@@]34[C@@H]5C[C@H]6[C@H](OC)[C@@H]5[C@](O)(C[C@@H]6OC)[C@](O)([C@@H](O)[C@H]23)[C@@H]14 | > 20 | > 20 | > 20 | > 20 | 
8 | CCN1C[C@]2(C)CC[C@H](OC)[C@@]34[C@@H]5C[C@H]6[C@H](OC)[C@@H]5[C@](O)(C[C@@H]6OC)[C@](O)([C@@H](OC(=O)c5cccc(C(F)(F)F)c5)[C@H]23)[C@@H]14 | > 20 | > 20 | > 20 | > 20 | 
9 | CCN1C[C@]2(C)CC[C@H](OC)[C@@]34[C@@H]5C[C@H]6[C@H](O)[C@@H]5[C@@]5(C[C@@H]6OC)OCO[C@@]5(C(=O)[C@H]23)[C@@H]14 [YUNNADELPHININE] | > 20 | > 20 | > 20 | > 20 | 
10 | CCN1C[C@]2(C)CC[C@H](OC)[C@@]34[C@@H]5C[C@H]6[C@H](OC)[C@@H]5[C@@]5(C[C@@H]6OC)OCO[C@@]5([C@@H](OC(=O)c5ccc(C(F)(F)F)nc5)[C@H]23)[C@@H]14 | > 20 | > 20 | > 20 | 18.7 | 
11 | CCN1C[C@]2(C)CC[C@H](OC)[C@@]34[C@@H]5C[C@H]6[C@H](OC)[C@@H]5[C@@]5(C[C@@H]6OC)OCO[C@@]5([C@@H](OC(=O)/C=C/c5ccc(F)cc5)[C@H]23)[C@@H]14 | > 20 | > 20 | > 20 | > 20 | 
12 | CCN1C[C@]2(C)CC[C@H](OC)[C@@]34C1[C@@]1(OCO[C@@]15C[C@H](OC)[C@H]1C[C@@H]3[C@@H]5[C@H]1OC)[C@@H](OC(=O)c1ccc(C(=O)OC)cc1)[C@H]24 (single isomer, unassigned) | > 20 | > 20 | > 20 | > 20 | 
13 | CCN1C[C@]2(C)CC[C@H](OC)[C@@]34C1[C@@]1(OCO[C@@]15C[C@H](OC)[C@H]1C[C@@H]3[C@@H]5[C@H]1O)[C@@H](O)[C@H]24 [DELPHELINE] | > 20 | > 20 | > 20 | > 20 | 
14 | CCN1C[C@]2(C)CC[C@H](OC)[C@@]34[C@@H]5C[C@H]6[C@H](OC)[C@@H]5[C@@]5(C[C@@H]6OC)OCO[C@@]5(C(=O)[C@H]23)[C@@H]14 [PACININE] | > 20 | > 20 | > 20 | > 20 | 
15 | CCN1C[C@]2(C)CC[C@H](OC)[C@@]34C1[C@@]1(OCO[C@@]15C[C@H](OC)[C@H]1C[C@@H]3[C@@H]5[C@H]1OC)[C@@H](OC(=O)c1ccc(F)cc1)[C@H]24 (single isomer, unassigned) | > 20 | 15.6 | > 20 | 15 | 
16 | CCN1C[C@]2(C)CC[C@H](OC)[C@@]34[C@@H]5C[C@H]6[C@H](OC)[C@@H]5[C@@]5(C[C@@H]6OC)OCO[C@@]5([C@@H](OC(=O)c5ccc(OCc6ccccc6)cc5)[C@H]23)[C@@H]14 | 14.1 | 13.2 | 6.76 | 4.22 | 1.6
17 | CCN1C[C@]2(C)CC[C@H](OC)[C@@]34[C@@H]5C[C@H]6[C@H](OC)[C@@H]5[C@@]5(C[C@@H]6OC)OCO[C@@]5([C@@H](OC(=O)c5ccc(C(F)(F)F)c(F)c5)[C@H]23)[C@@H]14 | 16.5 | 11.3 | 5.44 | 4.4 | 1.24
18 | CCN1C[C@]2(C)CC[C@H](OC)[C@@]34C1[C@@]1(OCO[C@@]15C[C@H](OC)[C@H]1C[C@@H]3[C@@H]5[C@H]1OC)[C@@H](OC(=O)c1ccc(OC)cc1)[C@H]24 (single isomer, unassigned) | > 20 | > 20 | > 20 | > 20 | 
19 | CCN1C(=O)[C@]2(C)CC[C@H](OC)[C@@]34[C@@H]5C[C@H]6[C@H](OC)[C@@H]5[C@@]5(C[C@@H]6OC)OCO[C@@]5([C@@H](O)[C@@H]32)[C@@H]14 | > 20 | > 20 | > 20 | > 20 | 
20 | CCN1C[C@]2(C)CC[C@H](OC)[C@@]34C1[C@@]1(OCO[C@@]15C[C@H](OC)[C@H]1C[C@@H]3[C@@H]5[C@H]1OC)[C@@H](OC(=O)c1cc([N+](=O)[O-])cc([N+](=O)[O-])c1)[C@H]24 (single isomer, unassigned) | > 20 | > 20 | 19.1 | 20.3 | 
21 | CCN1C[C@]2(C)CC[C@H](OC)[C@@]34[C@@H]5C[C@H]6[C@H](OC)[C@@H]5[C@@]5(C[C@@H]6OC)OCO[C@@]5([C@@H](OC(=O)/C=C/c5cccc(C(F)(F)F)c5)[C@H]23)[C@@H]14 | 10.2 | 15.1 | > 20 | 9.1 | >2.31
22 | CCN1C[C@]2(C)CC[C@H](OC)[C@@]34C1[C@@]1(OCO[C@@]15C[C@H](OC)[C@H]1C[C@@H]3[C@@H]5[C@H]1OC)[C@@H](OC(=O)c1ccc(-c3ccccc3)cc1)[C@H]24 (single isomer, unassigned) | > 20 | 17.1 | > 20 | 17.4 | 
23 | CCN1C[C@]2(C)CC[C@H](OC)[C@@]34[C@@H]5C[C@H]6[C@H](OC)[C@@H]5[C@@]5(C[C@@H]6OC)OCO[C@@]5([C@@H](OC(=O)c5ccc(F)c(C)c5)[C@H]23)[C@@H]14 | > 20 | 19.8 | 12.1 | 4.71 | 2.57
24 | CCN1C[C@]2(C)CC[C@H](OC)[C@@]34[C@@H]5C[C@H]6[C@H](OC)[C@@H]5[C@@]5(C[C@@H]6OC)OCO[C@@]5([C@@H](OC(=O)c5ccc(Cl)cc5)[C@H]23)[C@@H]14 | 14.8 | 7.4 | 8.85 | 8.27 | 1.07
25 | CCN1C[C@]2(C)CC[C@H](OC)[C@@]34C1[C@@]1(OCO[C@@]15C[C@H](OC)[C@H]1C[C@@H]3[C@@H]5[C@H]1OC)[C@@H](OC(=O)c1cc(F)c(F)c(F)c1)[C@H]24 (single isomer, unassigned) | 19.9 | 16.9 | 14.6 | 6.8 | 2.15
26 | CC(=O)O[C@H]1C(=O)[C@@]2(C)[C@H]([C@H](OC(=O)c3ccccc3)[C@]3(O)C[C@H](OC(=O)[C@H](O)[C@@H](NC(=O)c4ccccc4)c4ccccc4)C(C)=C1C3(C)C)[C@]1(OC(C)=O)CO[C@@H]1C[C@@H]2O [PACLITAXEL] | 0.0064 | 0.0059 | 0.006 | 0.76 | 
